Data from publication PMC5516028, “Molecular tools for GABAA receptors: High affinity ligands for β1-containing subtypes” (Scientific Reports, 2017).
Several values for one entry are separate records, joined by “and”; a condition that tells them apart may be missing. Identical values can stand only once.

What was measured:
Assay type in all cases: cell-based
α4β3γ2 GABAA receptors = target: T1, α4β3γ2 GABAA receptors (Rattus norvegicus, UniProt P28471+P63079); test: Two electrode voltage clamp in Xenopus laevis oocytes, α4β3γ2
T1 construct: expressed in transfected cells; host or cells: Xenopus laevis oocytes, mRNA injected
Source text: (§1) cDNA’s of rat GABAA receptor subunits α1, α4, β1, β2, β3 and γ2S were cloned as described. cDNAs of the rat subunits α2, α3 and α5 were gifts from P. Malherbe, that of α6 and γ1 were gifts of P. Seeburg and that of δ was a gift of C. Czajkowski. The mutants were constructed using the Q5 Site-Directed Mutagenesis Kit (New England Biolabs) following manufacturer’s instruction. We used the wild-type rat β3-pCI vector as template and the primers […] and […] resulting in a substitution of amino acid N41 (AAC) to R (AGG). We used the wild-type rat β1-pCI vector as template and the primers […] and […] resulting in a substitution of amino acid R41 (CGG) to N (AAC). The mutated subunits were confirmed by sequencing.
(§2) In vitro transcription of mRNA was based on the cDNA expression vectors encoding for rat GABAA receptor subunits α1–6, β1-3, γ1,2, δ and the two β mutants (β1R41N and β3N41R)[40]. After linearizing the cDNA vectors with appropriate restriction endonucleases, the cDNA was purified and concentrated with the DNA Clean and Contentrator ^TM Kit (Zymoresearch, Catalog No. D4005). Capped transcripts of the purified cDNA were produced using the mMESSAGE mMACHINE® T7 transcription kit (Ambion, TX, USA) and polyadenylated using the Ambion PolyA tailing kit (Ambion). After transcription and polyadenylation the RNA was purified with the MEGAclear ^TM Kit (Ambion, Catalog No. AM1908). The final RNA concentration was measured on NanoDrop® ND-1000 and finally diluted and stored in diethylpyrocarbonate-treated water at −80 °C. For the microinjection, the RNA of αβ receptor combinations was mixed at 1:1 ratio (which leads to αβ receptors that consist of predominantly 3 beta and 2 alpha subunits[27]), for αkβlγm (k = 1–3, l = 1, 3, m = 1, 2) receptors at 1:1:5 ratio, for αkβ3γ2 (k = 4–6) and αkβlδ (k = 1, 4 and 6, l = 1, 3) receptor combinations at 3:1:5 ratio.
(§3) Mature female Xenopus laevis (Nasco, WI) were anesthetized in a bath of ice-cold 0.17% Tricain (Ethyl-m-aminobenzoate, Sigma, MO) before decapitation in full accordance with all rules of the Austrian animal protection law (see http://www.ris.bka.gv.at/Dokumente/BgblAuth/BGBLA_2012_I_114/BGBLA_2012_I_114.pdf) and the Austrian animal experiment by-laws (see https://www.ris.bka.gv.at/Dokumente/BgblAuth/BGBLA_2012_II_522/BGBLA_2012_II_522.pdf) which implement the European Directive 2010/63/EU (see http://eur-lex.europa.eu/LexUriServ/LexUriServ.do?uri=OJ:L:2010:276:0033:0079:en:PDF) into the Austrian law (all information accessed on July 27, 2016). The frog’s ovaries were transferred to ND96 medium (96 mM NaCl, 2 mM KCl, 1 mM MgCl2, 5 mM HEPES; pH 7.5). Stage 5–6 oocytes with the follicle cell layer around them were roughly dissected with forceps into packages of 10–15 cells and washed in Ca^2+-free ND96 medium. Cells were then digested with collagenase (type IA, Sigma, NO, 1 mg/mL ND96) at 18 °C shaking at 30 rpm for 30–60 minutes and gently defolliculated with the aid of a glass pipette with appropriate tip diameter and a platinum loop. Defolliculated cells were stored at 18 °C for at least 6 hours in ND96 solution containing penicillin G (10000 IU/100 mL) and streptomycin (10 mg/100 mL) in order to preselect and exclude damaged cells from further treatment. Healthy defolliculated oocytes were injected with an aqueous solution of mRNA. A total of 4.5 ng of mRNA per oocyte was injected with a Nanoject II (Drummond). After injection of mRNA, oocytes were incubated at 18 °C (ND96 + antibiotic) for 2–3 days for αβ receptors and for 3–4 days for αβγ or αβδ receptors before recording. When cells were measured at later time points, oocytes were stored at +4 °C instead of 18 °C.
(§4) For electrophysiological recordings, oocytes were placed on a nylon-grid in a bath of Ca^2+-containing NDE solution medium [96 mM NaCl, 5 mM HEPES-NaOH (pH 7.5), 2 mM KCl, 1 mM MgCl2, 1.8 mM CaCl2].

α5β3γ2 GABAA receptors = target: T2, α5β3γ2 GABAA receptors (Rattus norvegicus, UniProt P19969+P63079); test: Two electrode voltage clamp in Xenopus laevis oocytes, α5β3γ2
T2 construct: expressed in transfected cells; host or cells: Xenopus laevis oocytes, mRNA injected
Source text: as §1, §2, §3, §4

α2β3γ2 GABAA receptors = target: T3, α2β3γ2 GABAA receptors (Rattus norvegicus, UniProt P23576+P63079); test: Two electrode voltage clamp in Xenopus laevis oocytes, α2β3γ2
T3 construct: expressed in transfected cells; host or cells: Xenopus laevis oocytes, mRNA injected
Source text: as §1, §2, §3, §4

α2β3 GABAA receptors = target: T4, α2β3 GABAA receptors (Rattus norvegicus, UniProt P23576+P63079); test: Two electrode voltage clamp in Xenopus laevis oocytes, α2β3
T4 construct: expressed in transfected cells; host or cells: Xenopus laevis oocytes, mRNA injected
Source text: as §1, §2, §3, §4

α5β3 GABAA receptors = target: T5, α5β3 GABAA receptors (Rattus norvegicus, UniProt P19969+P63079); test: Two electrode voltage clamp in Xenopus laevis oocytes, α5β3; conditions: read-out: efficacy, % of control current (GABA EC3-5 = 100%), α5β3
T5 construct: expressed in transfected cells; host or cells: Xenopus laevis oocytes, mRNA injected
Source text: as §1, §2, §3, §4

α3β3γ2 GABAA receptors = target: T6, α3β3γ2 GABAA receptors (Rattus norvegicus, UniProt P20236+P63079); test: Two electrode voltage clamp in Xenopus laevis oocytes, α3β3γ2
T6 construct: expressed in transfected cells; host or cells: Xenopus laevis oocytes, mRNA injected
Source text: as §1, §2, §3, §4

α6β3γ2 GABAA receptors = target: T7, α6β3γ2 GABAA receptors (Rattus norvegicus, UniProt P30191+P63079); test: Two electrode voltage clamp in Xenopus laevis oocytes, α6β3γ2
T7 construct: expressed in transfected cells; host or cells: Xenopus laevis oocytes, mRNA injected
Source text: as §1, §2, §3, §4

[1] = read-out: efficacy, % of control current (GABA EC3-5 = 100%), 1 nM
[2] = read-out: efficacy, % of control current (GABA EC3-5 = 100%), 10 nM
[3] = read-out: efficacy, % of control current (GABA EC3-5 = 100%), 100 nM
[4] = read-out: efficacy, % of control current (GABA EC3-5 = 100%), 1 µM
[5] = read-out: efficacy, % of control current (GABA EC3-5 = 100%), 10 µM

T6 sequence (P20236 29-493): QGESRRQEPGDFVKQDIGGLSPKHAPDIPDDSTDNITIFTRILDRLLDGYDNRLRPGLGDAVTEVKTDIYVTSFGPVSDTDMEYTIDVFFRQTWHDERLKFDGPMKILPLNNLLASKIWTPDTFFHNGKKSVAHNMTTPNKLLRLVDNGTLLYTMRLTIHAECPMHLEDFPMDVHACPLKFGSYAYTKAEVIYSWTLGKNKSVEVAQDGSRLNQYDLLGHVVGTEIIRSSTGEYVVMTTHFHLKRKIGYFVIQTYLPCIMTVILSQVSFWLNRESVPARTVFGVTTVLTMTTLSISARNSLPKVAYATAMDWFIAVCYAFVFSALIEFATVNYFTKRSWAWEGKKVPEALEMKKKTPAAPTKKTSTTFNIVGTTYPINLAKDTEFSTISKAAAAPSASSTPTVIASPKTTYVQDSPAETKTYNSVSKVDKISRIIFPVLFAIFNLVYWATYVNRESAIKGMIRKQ
T6 sequence (P63079 26-473): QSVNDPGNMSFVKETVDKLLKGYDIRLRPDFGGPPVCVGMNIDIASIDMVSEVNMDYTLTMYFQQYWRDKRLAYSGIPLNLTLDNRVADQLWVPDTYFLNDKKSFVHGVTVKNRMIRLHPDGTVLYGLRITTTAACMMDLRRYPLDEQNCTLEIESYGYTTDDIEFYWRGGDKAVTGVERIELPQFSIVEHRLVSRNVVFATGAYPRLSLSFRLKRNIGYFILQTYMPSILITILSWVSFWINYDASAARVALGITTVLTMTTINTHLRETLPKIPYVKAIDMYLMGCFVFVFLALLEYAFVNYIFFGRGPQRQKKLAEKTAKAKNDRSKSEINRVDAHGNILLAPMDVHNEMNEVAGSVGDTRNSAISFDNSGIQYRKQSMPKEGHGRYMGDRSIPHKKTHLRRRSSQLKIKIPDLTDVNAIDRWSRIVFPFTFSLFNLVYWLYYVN
T6 sequence (P18508 39-466 partner): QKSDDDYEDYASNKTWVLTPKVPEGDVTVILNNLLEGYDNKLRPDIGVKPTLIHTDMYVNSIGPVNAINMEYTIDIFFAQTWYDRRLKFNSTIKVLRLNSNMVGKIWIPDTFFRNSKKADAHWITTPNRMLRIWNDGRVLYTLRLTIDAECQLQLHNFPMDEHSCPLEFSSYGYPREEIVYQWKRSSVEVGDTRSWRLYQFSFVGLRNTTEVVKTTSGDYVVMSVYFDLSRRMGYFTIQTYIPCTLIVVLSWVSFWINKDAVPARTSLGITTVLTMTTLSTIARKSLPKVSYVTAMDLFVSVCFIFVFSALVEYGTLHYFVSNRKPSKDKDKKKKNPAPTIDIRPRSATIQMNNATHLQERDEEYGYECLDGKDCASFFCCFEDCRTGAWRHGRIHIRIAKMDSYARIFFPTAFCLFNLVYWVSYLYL
T1 sequence (P28471 36-552): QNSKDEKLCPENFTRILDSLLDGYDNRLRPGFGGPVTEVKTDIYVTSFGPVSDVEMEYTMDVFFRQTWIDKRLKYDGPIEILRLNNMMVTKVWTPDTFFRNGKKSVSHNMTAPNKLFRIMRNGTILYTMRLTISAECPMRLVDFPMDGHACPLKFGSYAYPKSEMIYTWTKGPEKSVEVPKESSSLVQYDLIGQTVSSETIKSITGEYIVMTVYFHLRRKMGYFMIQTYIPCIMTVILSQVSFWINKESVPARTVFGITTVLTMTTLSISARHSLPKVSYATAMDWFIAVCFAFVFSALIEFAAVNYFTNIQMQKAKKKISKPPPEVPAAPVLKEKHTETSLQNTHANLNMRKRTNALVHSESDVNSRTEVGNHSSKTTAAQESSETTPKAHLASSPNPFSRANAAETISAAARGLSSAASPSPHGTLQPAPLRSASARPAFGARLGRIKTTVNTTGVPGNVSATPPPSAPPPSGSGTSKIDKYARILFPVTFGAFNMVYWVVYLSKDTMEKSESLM
T1 sequence (P63079 26-473): as the sequence (P63079 26-473) above
T1 sequence (P18508 39-466 partner): as the sequence (P18508 39-466 partner) above
T4 sequence (P23576 29-451): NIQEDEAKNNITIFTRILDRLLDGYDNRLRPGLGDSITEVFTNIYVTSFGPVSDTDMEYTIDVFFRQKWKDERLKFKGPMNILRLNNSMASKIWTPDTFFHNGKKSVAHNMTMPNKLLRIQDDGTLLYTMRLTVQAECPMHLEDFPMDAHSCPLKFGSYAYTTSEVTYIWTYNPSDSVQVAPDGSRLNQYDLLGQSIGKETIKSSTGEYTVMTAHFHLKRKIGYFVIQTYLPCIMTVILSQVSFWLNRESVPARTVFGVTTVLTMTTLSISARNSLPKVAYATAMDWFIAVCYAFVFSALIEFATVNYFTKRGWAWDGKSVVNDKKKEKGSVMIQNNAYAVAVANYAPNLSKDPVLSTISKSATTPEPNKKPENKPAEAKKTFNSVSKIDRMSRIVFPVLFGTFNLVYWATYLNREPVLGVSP
T4 sequence (P63079 26-473): as the sequence (P63079 26-473) above
T3 sequence (P23576 29-451): as the sequence (P23576 29-451) above
T3 sequence (P63079 26-473): as the sequence (P63079 26-473) above
T3 sequence (P18508 39-466 partner): as the sequence (P18508 39-466 partner) above
T2 sequence (P19969 32-464 limits assumed): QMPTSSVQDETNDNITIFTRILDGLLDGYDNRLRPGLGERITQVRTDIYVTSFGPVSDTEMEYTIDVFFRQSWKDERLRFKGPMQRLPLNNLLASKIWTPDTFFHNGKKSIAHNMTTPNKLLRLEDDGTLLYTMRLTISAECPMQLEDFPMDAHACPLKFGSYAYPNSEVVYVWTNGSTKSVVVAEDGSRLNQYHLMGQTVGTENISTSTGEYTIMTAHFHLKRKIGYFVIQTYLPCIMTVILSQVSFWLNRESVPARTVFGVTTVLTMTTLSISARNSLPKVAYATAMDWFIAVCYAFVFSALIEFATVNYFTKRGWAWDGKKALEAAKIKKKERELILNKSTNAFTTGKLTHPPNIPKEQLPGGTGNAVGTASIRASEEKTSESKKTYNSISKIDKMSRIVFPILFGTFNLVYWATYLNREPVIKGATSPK
T2 sequence (P63079 26-473): as the sequence (P63079 26-473) above
T2 sequence (P18508 39-466 partner): as the sequence (P18508 39-466 partner) above
T5 sequence (P19969 32-464 limits assumed): as the sequence (P19969 32-464 limits assumed) above
T5 sequence (P63079 26-473): as the sequence (P63079 26-473) above
T7 sequence (P30191 20-453): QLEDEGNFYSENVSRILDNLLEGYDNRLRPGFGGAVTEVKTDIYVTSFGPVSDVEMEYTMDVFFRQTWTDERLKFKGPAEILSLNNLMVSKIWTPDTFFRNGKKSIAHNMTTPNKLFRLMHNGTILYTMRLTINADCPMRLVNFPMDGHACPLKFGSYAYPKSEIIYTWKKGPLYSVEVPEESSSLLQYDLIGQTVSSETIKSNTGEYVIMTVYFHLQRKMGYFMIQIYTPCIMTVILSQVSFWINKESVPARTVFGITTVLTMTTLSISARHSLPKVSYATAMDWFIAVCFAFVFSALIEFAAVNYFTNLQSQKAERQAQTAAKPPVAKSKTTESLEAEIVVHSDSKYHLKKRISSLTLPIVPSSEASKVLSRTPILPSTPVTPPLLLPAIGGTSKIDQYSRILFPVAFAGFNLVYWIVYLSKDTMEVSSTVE
T7 sequence (P63079 26-473): as the sequence (P63079 26-473) above
T7 sequence (P18508 39-466 partner): as the sequence (P18508 39-466 partner) above

Nc1ccc(-n2nc3c4cc(Cl)ccc4[nH]cc-3c2=O)cc1 [Compound 3, 8-Chloro-2-(4-aminophenyl)-2H-pyrazolo[4,3-c]quinolin-3(5H)-one]
EC50 (α4β3γ2 GABAA receptors): > 10000 nM | activity at 0.001 µM (α4β3γ2 GABAA receptors; read-out: efficacy, % of control current (GABA EC3-5 = 100%), α4β3γ2, 1 nM): 99.7 ± 2% | activity at 0.003 µM (α4β3γ2 GABAA receptors; read-out: efficacy, % of control current (GABA EC3-5 = 100%), α4β3γ2, 3 nM): 111% | activity at 0.01 µM (α4β3γ2 GABAA receptors; read-out: efficacy, % of control current (GABA EC3-5 = 100%), α4β3γ2, 10 nM): 107 ± 3.4% | activity at 0.03 µM (α4β3γ2 GABAA receptors; read-out: efficacy, % of control current (GABA EC3-5 = 100%), α4β3γ2, 30 nM): 114% | activity at 0.1 µM (α4β3γ2 GABAA receptors; read-out: efficacy, % of control current (GABA EC3-5 = 100%), α4β3γ2, 100 nM): 122 ± 4.6% | activity at 1 µM (α4β3γ2 GABAA receptors; read-out: efficacy, % of control current (GABA EC3-5 = 100%), α4β3γ2, 1 µM): 137 ± 6.7% | activity at 10 µM (α4β3γ2 GABAA receptors; read-out: efficacy, % of control current (GABA EC3-5 = 100%), α4β3γ2, 10 µM): 104 ± 12.6% | EC50 (α5β3γ2 GABAA receptors): > 10000 nM | activity at 0.01 µM (α5β3γ2 GABAA receptors; read-out: efficacy, % of control current (GABA EC3-5 = 100%), α5β3γ2, 10 nM): 89.6 ± 3.1% | activity at 0.1 µM (α5β3γ2 GABAA receptors; read-out: efficacy, % of control current (GABA EC3-5 = 100%), α5β3γ2, 100 nM): 83.6 ± 4.2% | activity at 1 µM (α5β3γ2 GABAA receptors; read-out: efficacy, % of control current (GABA EC3-5 = 100%), α5β3γ2, 1 µM): 90.6 ± 5.1% | activity at 10 µM (α5β3γ2 GABAA receptors; read-out: efficacy, % of control current (GABA EC3-5 = 100%), α5β3γ2, 10 µM): 52.8 ± 6.7% | EC50 (α2β3γ2 GABAA receptors): > 10000 nM | activity at 0.01 µM (α2β3γ2 GABAA receptors; read-out: efficacy, % of control current (GABA EC3-5 = 100%), α2β3γ2, 10 nM): 103 ± 3.2% | activity at 0.1 µM (α2β3γ2 GABAA receptors; read-out: efficacy, % of control current (GABA EC3-5 = 100%), α2β3γ2, 100 nM): 103 ± 3.2% | activity at 1 µM (α2β3γ2 GABAA receptors; read-out: efficacy, % of control current (GABA EC3-5 = 100%), α2β3γ2, 1 µM): 106 ± 2.2% | activity at 10 µM (α2β3γ2 GABAA receptors; read-out: efficacy, % of control current (GABA EC3-5 = 100%), α2β3γ2, 10 µM): 124 ± 4.1% | EC50 (α2β3 GABAA receptors; read-out: EC50): 5100 nM | activity at 0.001 µM (α2β3 GABAA receptors; read-out: efficacy, % of control current (GABA EC3-5 = 100%), α2β3, 1 nM): 100 ± 0.1% | activity at 0.1 µM (α2β3 GABAA receptors; read-out: efficacy, % of control current (GABA EC3-5 = 100%), α2β3, 100 nM): 102 ± 1.2% | activity at 10 µM (α2β3 GABAA receptors; read-out: efficacy, % of control current (GABA EC3-5 = 100%), α2β3, 10 µM): 156 ± 9.7% | activity at 0.1 µM (α5β3 GABAA receptors; 100 nM): 115 ± 8% | activity at 1 µM (α5β3 GABAA receptors; 1 µM): 108 ± 4.7% | activity at 10 µM (α5β3 GABAA receptors; 10 µM): 75.4 ± 6.4% | modulatory effects up to (α3β3γ2 GABAA receptors): ~ 200% | EC50 (α3β3γ2 GABAA receptors; co-applied with GABA EC3-5): ~1000 nM and 1200 nM | activity at 0.001 µM (α3β3γ2 GABAA receptors; [1]): 100% | activity at 0.01 µM (α3β3γ2 GABAA receptors; [2]): 101 ± 1% | activity at 0.1 µM (α3β3γ2 GABAA receptors; [3]): 108 ± 3.7% | activity at 0.3 µM (α3β3γ2 GABAA receptors; read-out: efficacy, % of control current (GABA EC3-5 = 100%), 300 nM): 104 ± 4% | activity at 1 µM (α3β3γ2 GABAA receptors; [4]): 133 ± 4% | activity at 10 µM (α3β3γ2 GABAA receptors; [5]): 202 ± 23% | activity at 30 µM (α3β3γ2 GABAA receptors; read-out: efficacy, % of control current (GABA EC3-5 = 100%), 30 µM): 195% | EC50 (α6β3γ2 GABAA receptors; co-applied with GABA EC3-5): ~2000 nM and 2300 nM | activity at 0.001 µM (α6β3γ2 GABAA receptors; [1]): 108 ± 5.9% | activity at 0.01 µM (α6β3γ2 GABAA receptors; [2]): 120 ± 7.1% | activity at 0.1 µM (α6β3γ2 GABAA receptors; [3]): 148 ± 8% | activity at 1 µM (α6β3γ2 GABAA receptors; [4]): 250 ± 18.9% | activity at 10 µM (α6β3γ2 GABAA receptors; [5]): 394 ± 35%
